The subject of experiment [1] is primary human PBMCs. In words: IFN-α levels in primary human PBMCs by Cytometric Bead Array. The class given is cell-based. The settings on record: 50 μM, Effectene transfection, 24 hours; fifteen donors. The method, then: To determine the levels of IFN-α as a signature of CDN potency to activate innate immunity, 1×10^6 primary human PBMCs isolated from fifteen independent human donors were incubated in a 96 well U bottom plate for 30 min at 37° C., 5% CO2 with 50 μM of c-di-GMP (CDG), 1 μg/mL of Interferon Stimulatory DNA (ISD), or 4 μg/mL of Poly (I:C) utilizing Effectene transfection reagent (Qiagen) to transfer the molecules into the PBMC. ISD (Interferon Stimulating DNA) is TLR independent (Stetston, D. B. et. al. Immunity 24, 93-103, January 2006) and signals through cGAS, and is thus STING-dependent, while Poly (I:C) can signal through both TLR3 and RIG-I pathways, and are thus STING-independent. After 30 minutes, the cells were washed and replaced with RPMI media containing 10% FBS and incubated at 37° C., 5% CO2. After 24 hours incubation IFN-α levels were determined by Cytometric Bead Array (CBA, BD Biosciences) (FIG. 8).

Experiment [2] concerns the target T1, STING (Mus musculus, UniProt Q3TBT3).
T1 sequence (Q3TBT3 138-378 limits assumed): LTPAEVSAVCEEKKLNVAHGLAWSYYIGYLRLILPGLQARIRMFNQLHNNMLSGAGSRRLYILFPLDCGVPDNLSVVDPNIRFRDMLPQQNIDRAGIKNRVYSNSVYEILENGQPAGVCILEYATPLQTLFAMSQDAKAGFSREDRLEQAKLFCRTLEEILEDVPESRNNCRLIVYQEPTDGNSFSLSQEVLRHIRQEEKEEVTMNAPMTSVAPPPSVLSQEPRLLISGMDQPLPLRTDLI
The conditions noted are these: cited from earlier work.

Regarding `Nc1nc2c(ncn2[C@@H]2O[C@@H]3COP(=O)(O)O[C@H]4[C@@H](O)[C@H](n5cnc6c(=O)[nH]c(N)nc65)O[C@@H]4COP(=O)(O)O[C@H]3[C@H]2O)c(=O)[nH]1` [cyclic-di-GMP, cyclic diguanylate monophosphate], the “activation of innate immunity (IFN-α levels)” value in experiment [1] is listed as “activates innate immunity”. The “binding to STING” value in experiment [2] is “binds directly”.

The values above are taken from patent publication US9770467B2, “Compositions and methods for cancer immunotherapy” (THE JOHNS HOPKINS UNIVERSITY, priority 2012, dated 2017).
